Source: US20100267779A1, “Novel Compounds and Methods of Using Them” (SYNDAX PHARMACEUTICALS, INC., priority 2007, published 2010)

Tested on: HDAC
Test: Alternative HDAC activity assay (Cayman Chemicals fluorescent-based HDAC activity assay)
Format: biochemical
Settings: acetylated lysine substrate, HDAC developer, fluorescence readout; compared with MS-275
Method: Cayman Chemicals markets a commercial fluorescent-based HDAC activity assay. The assay utilizes a fluorescent-based method for measuring HDAC activity that eliminates radioactivity, extraction or chromatography. The assay requires two steps: first, an acetylated lysine substrate is incubated with samples containing HDAC activity. Deacetylation sensitizes the substrate such that treatment with the HDAC developer in the second step releases a fluorescent product. The fluorophore can be analyzed using a fluorescence plate reader or a fluorometer with […].

SMILES: C[C@H](OC(=O)NCc1ccc(C(=O)Nc2ccccc2N)cc1)c1cccnc1 [(S)-1-(pyridin-3-yl)ethyl 4-(2-aminophenylcarbamoyl)benzylcarbamate]
- HDAC activity (fluorescent-based HDAC activity assay, FIG. 1): activity similar to MS-275

SMILES: C[C@@H](OC(=O)NCc1ccc(C(=O)Nc2ccccc2N)cc1)c1cccnc1 [(R)-1-(pyridin-3-yl)ethyl 4-(2-aminophenylcarbamoyl)benzylcarbamate]
- HDAC activity (fluorescent-based HDAC activity assay, FIG. 1): activity similar to MS-275
